According to patent US9730944B2, “Antiviral activity of novel bicyclic heterocycles” (priority 2010, dated 2017):
Converted amounts (≈) assume the structure as drawn.

Experiments:
hRV-86 = assay: Rhinovirus type 86 antiviral assay in Hela Rh cells, MTS readout; type: cell-based, Human rhinovirus; settings: Human rhinovirus sp., HRV86, HeLa Rh, Hela Rh cells; read-out: hRV-86 EC50
hRV-42 = assay: Rhinovirus type 42 antiviral assay in Hela Rh cells, MTS readout; type: cell-based, Human rhinovirus; settings: Human rhinovirus sp., HRV42, HeLa Rh, Hela Rh cells; read-out: hRV-42 EC50
hRV-14 = assay: Rhinovirus type 14 antiviral assay in Hela Rh cells, MTS readout; type: cell-based, Human rhinovirus; settings: Rhinovirus B, HRV14, HeLa Rh, Hela Rh cells; read-out: hRV-14 EC50
hRV-39 = assay: Rhinovirus type 39 antiviral assay in Hela Rh cells, MTS readout; type: cell-based, Human rhinovirus; settings: Human rhinovirus sp., HRV39, HeLa Rh, Hela Rh cells; read-out: hRV-39 EC50
hRV-45 = assay: Rhinovirus type 45 antiviral assay in Hela Rh cells, MTS readout; type: cell-based, Human rhinovirus; settings: Human rhinovirus sp., HRV45, HeLa Rh, Hela Rh cells; read-out: hRV-45 EC50
hRV-63 = assay: Rhinovirus type 63 antiviral assay in Hela Rh cells, MTS readout; type: cell-based, Human rhinovirus; settings: Human rhinovirus sp., HRV63, HeLa Rh, Hela Rh cells; read-out: hRV-63 EC50
hRV-85 = assay: Rhinovirus type 85 antiviral assay in Hela Rh cells, MTS readout; type: cell-based, Human rhinovirus; settings: Human rhinovirus sp., HRV85, HeLa Rh, Hela Rh cells; read-out: hRV-85 EC50
hRV-2 = assay: Rhinovirus type 2 antiviral assay in Hela Rh cells, MTS readout; type: cell-based, Human rhinovirus; settings: Rhinovirus A, HRV2, HeLa Rh, Hela Rh cells; read-out: hRV-2 EC50
hRV-15 = assay: Rhinovirus type 15 antiviral assay in Hela Rh cells, MTS readout; type: cell-based, Human rhinovirus; settings: Human rhinovirus sp., HRV15, HeLa Rh, Hela Rh cells; read-out: hRV-15 EC50
hRV-72 = assay: Rhinovirus type 72 antiviral assay in Hela Rh cells, MTS readout; type: cell-based, Human rhinovirus; settings: Human rhinovirus sp., HRV72, HeLa Rh, Hela Rh cells; read-out: hRV-72 EC50
hRV-29 = assay: Rhinovirus type 29 antiviral assay in Hela Rh cells, MTS readout; type: cell-based; settings: Human rhinovirus sp., HRV29, HeLa Rh, Hela Rh cells; read-out: hRV-29 EC50
hRV-41 = assay: Rhinovirus type 41 antiviral assay in Hela Rh cells, MTS readout; type: cell-based, Human rhinovirus; settings: Human rhinovirus sp., HRV41, HeLa Rh, Hela Rh cells; read-out: hRV-41 EC50
[1] = Cytostatic/cytotoxic effect in Hela Rh cells (rhinovirus methodology, MTS); settings: human, CC50, Hela Rh cells
hRV-70 = assay: Rhinovirus type 70 antiviral assay in Hela Rh cells, MTS readout; type: cell-based, Human rhinovirus; settings: Human rhinovirus sp., HRV70, HeLa Rh, Hela Rh cells; read-out: hRV-70 EC50
hRV-9 = assay: Rhinovirus type 9 antiviral assay in Hela Rh cells, MTS readout; type: cell-based, Human rhinovirus; settings: Human rhinovirus sp., HRV9, HeLa Rh, Hela Rh cells; read-out: hRV-9 EC50

Compound	EC50 (hRV-86) [µg/mL]	EC50 (hRV-42) [µg/mL]	EC50 (hRV-14) [µg/mL]	EC50 (hRV-39) [µg/mL]	EC50 (hRV-45) [µg/mL]	EC50 (hRV-63) [µg/mL]	EC50 (hRV-85) [µg/mL]	EC50 (hRV-2) [µg/mL]	EC50 (hRV-15) [µg/mL]	EC50 (hRV-72) [µg/mL]	EC50 (hRV-29) [µg/mL]	EC50 (hRV-41) [µg/mL]	CC50 [1] [µg/mL]	EC50 (hRV-70) [µg/mL]	EC50 (hRV-9) [µg/mL]
COc1ccc(CCc2nc3c(N4CCN(C(=O)COc5ccc(Br)cc5)CC4)nc(N)nc3s2)cc1OC [Example 256, 1-(4-(5-amino-2-(3,4-dimethoxyphenethyl)thiazolo[5,4-d]pyrimidin-7-yl)piperazin-1-yl)-2-(4-bromophenoxy)ethanone]	4.86 (≈ 7.92 µM)	5.22 (≈ 8.51 µM)	2.81 (≈ 4.58 µM)	1.8 (≈ 2.93 µM)	> 50	32.9 (≈ 53.6 µM)	9.48 (≈ 15.5 µM)	2.07 (≈ 3.37 µM)	> 50	6.89 (≈ 11.2 µM)	4.06 (≈ 6.62 µM)	> 50	> 50	5.97 (≈ 9.73 µM)	4.05 (≈ 6.6 µM)
COc1cccc(CCc2nc3c(N4CCN(C(=O)COc5ccc(Cl)cc5)CC4)nc(N)nc3s2)c1 [Example 255, 1-(4-(5-amino-2-(3-methoxyphenethyl)thiazolo[5,4-d]pyrimidin-7-yl)piperazin-1-yl)-2-(4-chlorophenoxy)ethanone]	2.61 (≈ 4.84 µM)	1.1 (≈ 2.04 µM)	0.53 (≈ 0.983 µM)	0.5 (≈ 0.928 µM)	2.34 (≈ 4.34 µM)	3.31 (≈ 6.14 µM)	2.18 (≈ 4.04 µM)	0.65 (≈ 1.21 µM)	1.82 (≈ 3.38 µM)	> 50	0.6 (≈ 1.11 µM)	20.8 (≈ 38.6 µM)	> 50	4.02 (≈ 7.46 µM)	0.52 (≈ 0.965 µM)
COc1ccc(OCC(=O)N2CCN(c3nc(N)nc4sc(CCCCc5ccc(F)cc5)nc34)CC2)cc1 [Example 293, 1-(4-(5-amino-2-(4-(4-fluorophenyl)butyl)thiazolo[5,4-d]pyrimidin-7-yl)piperazin-1-yl)-2-(4-methoxyphenoxy)ethanone]	> 50	> 50	> 50	> 50	35.4 (≈ 64.2 µM)	21.2 (≈ 38.4 µM)	11.5 (≈ 20.9 µM)	12.4 (≈ 22.5 µM)	> 50	> 50	> 50	> 50	> 50	> 50	> 50
CC(C)(C)OC(=O)N[C@@H]1CCN(c2nc(N)nc3sc(-c4ccc(F)cc4)cc23)C1 [Example 338, (R)-tert-butyl 1-(2-amino-6-(4-fluorophenyl)thieno[2,3-d]pyrimidin-4-yl)pyrrolidin-3-ylcarbamate]	2.37 (≈ 5.52 µM)	5.65 (≈ 13.2 µM)	1.11 (≈ 2.58 µM)	0.38 (≈ 0.885 µM)	4.23 (≈ 9.85 µM)	8.43 (≈ 19.6 µM)	2.17 (≈ 5.05 µM)	0.37 (≈ 0.861 µM)	1.52 (≈ 3.54 µM)	4.96 (≈ 11.5 µM)	0.39 (≈ 0.908 µM)	27.4 (≈ 63.7 µM)	> 50	3.65 (≈ 8.5 µM)	0.78 (≈ 1.82 µM)
COc1ccc(OCC(=O)N2CCN(c3nc(N)nc4sc(CCc5ccc(Br)cc5)nc34)CC2)cc1 [Example 298, 1-(4-(5-amino-2-(4-bromophenethyl)thiazolo[5,4-d]pyrimidin-7-yl)piperazin-1-yl)-2-(4-methoxyphenoxy)ethanone]	4.58 (≈ 7.85 µM)	1.2 (≈ 2.06 µM)	1.23 (≈ 2.11 µM)	0.45 (≈ 0.771 µM)	4.56 (≈ 7.81 µM)	3.9 (≈ 6.68 µM)	2.21 (≈ 3.79 µM)	0.45 (≈ 0.771 µM)	1.61 (≈ 2.76 µM)	6.52 (≈ 11.2 µM)	0.89 (≈ 1.53 µM)	10.4 (≈ 17.8 µM)	> 50	4.71 (≈ 8.07 µM)	0.55 (≈ 0.943 µM)
COc1ccc(OCC(=O)N2CCN(c3nc(N)nc4sc(-c5ccc(F)cc5)nc34)CC2)cc1 [Example 234, 1-(4-(5-amino-2-(4-fluorophenyl)thiazolo[5,4-d]pyrimidin-7-yl)piperazin-1-yl)-2-(4-methoxyphenoxy)ethanone]	> 50	30.1 (≈ 60.9 µM)	> 50	0.08 (≈ 0.162 µM)	–	1.32 (≈ 2.67 µM)	< 0.39	0.06 (≈ 0.121 µM)	29.3 (≈ 59.2 µM)	> 50	0.04 (≈ 0.0809 µM)	25.5 (≈ 51.6 µM)	> 50	> 50	–
